Measurements reported in PubChem BioAssay (NCI).
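96-well plates; 48 h exposure; 5 concentrations. Endpoints by linear interpolation between flanking doses. Not reached: highest tested concentration assigned. The concentration for full growth arrest is given as TGI.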 Where a SMILES comes first, the peptide text is derived from it. The star is where a group is joined. Boc = CC(C)(C)OC(=O)*; OBn = c1ccc(CO*)cc1

Experiments:
Assay in all cases: NCI-60 cell line screen, 48 h
[1] = test system: A498 renal
[2] = test system: RXF 393 renal
[3] = test system: ACHN renal
[4] = test system: MCF7 breast
[5] = test system: SF-268 CNS
[6] = test system: SR leukemia
[7] = test system: U251 CNS
[8] = test system: OVCAR-3 ovarian
[9] = test system: HCT-15 colon
[10] = test system: HOP-92 NSCLC
[11] = test system: COLO 205 colon

SMILES | TGI [1] [µM] | TGI [2] [µM] | TGI [3] [µM] | TGI [4] [µM] | TGI [5] [µM] | TGI [6] [µM] | TGI [7] [µM] | TGI [8] [µM] | TGI [9] [µM] | TGI [10] [µM] | TGI [11] [µM]
Cc1cc(=O)oc2cc(O)ccc12 | > 100 | > 100 | > 100 | > 100 | > 100 | > 100 | > 100 | > 100 | > 100 | > 100 | > 100
C[C@]12CC[C@@H]3c4ccc(OC(=O)c5ccccc5)cc4CC[C@H]3[C@@H]1CC[C@@H]2Oc1c2ccccc2nc2ccccc12 | > 50 | 15.8 | > 50 | 46.3 | 20.8 | > 50 | 15.4 | 14.8 | 31.5 | 36.9 | > 50
Cc1c(-c2ccccc2)c(C#N)c2nnc(C(N)=O)c(N)n12 | > 100 | > 100 | > 100 | > 100 | > 100 | > 100 | > 100 | > 100 | > 100 | – | > 100
COc1cc2c(/C=C3/C(=O)N(c4ccccc4)c4ccccc43)c(Cl)[nH]c2cc1C | > 71.4 | > 81.4 | > 49.2 | > 79 | > 53.8 | 30.5 | > 33.3 | 9.66 | 11.4 | > 78.4 | 7.05
CC(C)N(C)C(=O)C12C3C4C1C1C2C3C41C#N (configuration not stated) | > 100 | > 100 | > 100 | > 100 | > 100 | > 100 | > 100 | > 100 | > 100 | > 100 | > 100
CC(=Nc1ccncc1)C(C)=Nc1ccncc1 | > 100 | 59.8 | 27.5 | 38.3 | > 100 | 67 | 69.1 | 28.8 | 27.5 | 83.5 | 31
[N-]=[N+]=Nc1ccc(CNc2cc(=O)[nH]c(=O)[nH]2)cc1 | > 100 | > 100 | > 100 | > 100 | > 100 | > 100 | > 100 | > 100 | > 100 | > 100 | > 100
Oc1ccc(CCc2cc(O)cc(O)c2)cc1 | > 100 | > 100 | > 100 | > 100 | > 100 | > 100 | > 100 | > 100 | > 100 | > 100 | > 100
CCOc1cc(C2CC(c3ccc(NS(=O)(=O)c4cc([N+](=O)[O-])ccc4C)cc3)=NN2)ccc1O (configuration not stated) | 70.7 | 40.4 | 76.7 | 49.6 | > 100 | 53.6 | – | 37.3 | 67.3 | > 100 | 43
CC(C)(C)OC(=O)NC(Cc1ccccc1)C(=O)NC(Cc1ccccc1)C(=O)NCC(=O)OCc1ccccc1 (stereo not drawn) (Boc-Phe-Phe-Gly-OBn; configuration not given here) | > 100 | – | > 100 | > 100 | 29.4 | 44.6 | 36.3 | 46.1 | 64.7 | > 100 | > 100
COc1cccc(-c2cc(=O)c3ccc(C)nc3[nH]2)c1 | 2.34 | > 100 | > 100 | > 22.9 | > 89.7 | 0.0503 | > 100 | – | – | 3.85 | 0.247
c1ccc2c(Cc3nnc4sc(SSc5nn6c(Cc7c[nH]c8ccccc78)nnc6s5)nn34)c[nH]c2c1 | 44.2 | 50.9 | > 100 | 46.4 | 67.2 | 41.7 | 58.6 | 29.2 | 53.6 | > 100 | 50.9
COc1ccc(/C=C2\N=C(c3ccccc3)N(C3Nc4cc5c(cc4S3)NC(N3C(=O)/C(=C/c4ccc(OC)cc4)N=C3c3ccccc3)S5)C2=O)cc1 (configuration not stated) | > 100 | > 100 | > 100 | > 100 | > 100 | > 100 | 63.7 | > 100 | > 100 | > 100 | –
Cc1ccc(-c2n[nH]c(=O)[nH]2)cc1[N+](=O)[O-] | > 100 | > 100 | > 100 | > 100 | > 100 | > 100 | > 100 | > 100 | > 100 | > 100 | > 100
CC(=O)c1cc2c(s1)C(=O)c1ccccc1C2=O | > 66.8 | 28 | 4.02 | 6.77 | 16 | > 100 | 17 | 11.1 | – | 21.6 | 28.9
CC(C)(C)OC[C@H](O)CC#N | > 100 | > 100 | > 100 | > 100 | > 100 | > 100 | > 100 | > 100 | > 100 | – | > 100
COc1ccc(C2C(C#N)=C(S)N(C3OC(CO)C(O)C(O)C3O)C(c3ccccc3)=C2C(C)=O)cc1 (configuration not stated) | > 100 | > 100 | > 100 | > 100 | > 100 | > 100 | > 100 | > 100 | > 100 | > 100 | > 100

SMILES | TGI [1] [µM] | TGI [2] [µM] | TGI [3] [µM] | TGI [4] [µM] | TGI [5] [µM] | TGI [6] [µM] | TGI [7] [µM] | TGI [8] [µM] | TGI [9] [µM] | TGI [10] [µM] | TGI [11] [µM]
O=C(N[C@H]1c2ccsc2/C(=N/O)[C@H]1O)C(F)(F)F | > 100 | > 100 | – | > 100 | > 100 | > 100 | > 100 | > 100 | > 100 | > 100 | > 100
CSc1c(C#N)c2n(c3ccccc13)c1ccccc1[n+]2C | 60 | – | 50.9 | > 100 | > 100 | > 100 | 73.7 | > 100 | > 100 | > 100 | 38.6
Cc1cc(C)n(CN(Cn2nc(C)cc2C)C2CCCCC2)n1 | > 100 | 50.9 | 51.9 | > 100 | 91.3 | > 100 | 83.6 | 56.9 | 42.6 | 87.5 | 32
O=C1c2cccc3cccc(c23)C(=O)N1CCCNOCCONCCCN1C(=O)c2cccc3cccc(c23)C1=O | > 100 | > 100 | > 100 | > 100 | > 100 | > 100 | > 100 | > 100 | > 100 | > 100 | > 100
CC1(C)Oc2ccc(NC(=O)CCC(N)C(=O)O)cc2O1 (configuration not stated) | > 100 | > 100 | > 100 | > 100 | – | > 100 | > 100 | > 100 | > 100 | > 100 | > 100
CCCCOCn1c(=O)[nH]c(=O)c2cc(Br)ccc21 | > 100 | > 100 | 42.1 | > 100 | – | > 100 | > 100 | > 100 | > 100 | > 100 | > 100
C[C@]12CC[C@H](O)CC1=CC[C@@H]1[C@@H]2CC[C@]2(C)/C(=N/OCCN3CCCC3)CC[C@@H]12 | 29.8 | 29.3 | 68.2 | 44.9 | > 100 | 35.5 | 36.2 | 31.1 | 28.8 | – | 30.1
COc1ccc2c(c1)/c(=C/c1ccc(N(C)C)cc1)c1cc(-c3ccccc3)[n+](C)n12 | 2.75 | 1.64 | 5.68 | 7.11 | 1.1 | 2.84 | 1.6 | – | 4.02 | 0.784 | –
CCc1c(C)c(C#N)c(=S)n(C2OC(CO)C(O)C(O)C2O)c1C (configuration not stated) | > 100 | > 100 | > 100 | > 100 | > 100 | > 100 | > 100 | > 100 | > 100 | > 100 | > 100
CSc1cc(N)ccc1N=Nc1ccc(S(N)(=O)=O)cc1 | > 100 | > 100 | 93 | > 100 | > 100 | > 100 | > 100 | 68.5 | 62.9 | 68.2 | 71.3
C[N+](C)(C)c1ncnc2c1ncn2C1CCCCO1 (configuration not stated) | > 100 | > 100 | > 100 | > 100 | > 100 | > 100 | > 100 | > 100 | – | > 100 | > 100
CCOC(=O)C(/C=N\C(=S)Nc1ccc(OCC)cc1)=C(/O)c1ccccc1 | 88.4 | > 100 | > 100 | > 100 | > 100 | > 100 | > 100 | > 100 | > 100 | 67.8 | > 100
COc1c2cc(C(C)(C)C)cc1Cc1cccc(c1O)Cc1cc(C(C)(C)C)cc(c1OC)Cc1cccc(c1O)Cc1cc(C(C)(C)C)cc(c1OC)Cc1cccc(c1O)C2 | > 100 | > 100 | > 100 | > 100 | > 100 | > 100 | > 100 | > 100 | > 100 | > 100 | > 100
CC1(COS(=O)(=O)OCC2(C)COS(=O)(=O)OC2)COS(=O)(=O)OC1 | 97.2 | > 100 | > 74 | > 59.9 | > 100 | > 56.9 | > 100 | > 100 | > 100 | > 63.8 | > 100
O=c1[nH]c(Nc2cccc(Cl)c2)nc2nc[nH]c12 | > 100 | > 100 | > 100 | > 100 | > 100 | > 100 | > 100 | > 100 | > 100 | > 100 | > 100
c1ccc2c(c1)nc1n2CCSC1 | > 100 | > 100 | > 100 | > 100 | > 100 | > 100 | > 100 | > 100 | > 100 | > 100 | > 100
